{"source": "patent US9763987B2", "about": "“Cyclic di-AMP induction of type I interferon” (priority 2010, dated 2017)", "key": {"[1]": {"tested_on": "bone marrow derived macrophages (BMM)", "test": "IFN-β bio-assay: samples delivered to BMM cytosol by digitonin, type I IFN read with ISRE-L929 luciferase reporter cells", "type": "cell-based, mouse", "details": "FIG. 3d", "procedure": "Mouse bone marrow from 6-8 week old female mice was differentiated to bone marrow derived macrophages (BMM) as described previously (S3). Interferon responsive ISRE-L929 cells were cultured in ISRE media (DMEM, 2 mM glutamine, 1 mM pyruvate, 10% heat inactivated FBS, and penicillin-streptomycin). Induction of type-I interferon was assessed using BMMs plated in 96-well flat bottom tissue culture treated plates (10^5 cells/well) a minimum of 12 hours prior to use in BMM media (DMEM, 2 mM glutamine, 1 mM pyruvate, 10% CSF from 3T3 cells, and 20% heat inactivated FBS). Samples (10 μL) of L. monocytogenes supernatants, HPLC fractions, and cyclic di-AMP standard (Biolog Life Sciences Institute, […]) were mixed with a 10× volume of digitonin permeabilization solution (50 mM HEPES pH 7.0, 100 mM KCl, 3 mM MgCl2, 0.1 mM DTT, 85 mM Sucrose, 0.2% BSA, 1 mM ATP, 0.1 mM GTP, ±10 μg/mL Digitonin) (S4). Media was aspirated from the cells and replaced with 50 μL each sample mixture. Cells were incubated for 30 minutes at 37° C. […] Finally, 40 μL of luciferase substrate solution (20 mM Tricine, 2.67 mM MgSO4.7H2O, 0.1 mM EDTA, 33.3 mM DTT, 530 μM ATP, 270 μM acetyl CoA lithium salt, 470 μM luciferin, 5 mM NaOH, 265 μM magnesium carbonate hydroxide) was added to each well and luminescence was measured using a VICTOR3 luminometer (PerkinElmer). • 8. […]"}, "[2]": {"tested_on": "cells"}, "[3]": {"tested_on": "WT and mutant BMMs", "test": "IFN-β induction in various host strains (WT and knockout BMMs), ISRE L929 bioassay", "type": "cell-based, mouse", "details": "3 μM with digitonin, 6 hours; WT vs myd88-trif−/−, irf3−/−, mays−/− macrophages; parallel to L. monocytogenes (IRF3 and STING dependent, MyD88/Trif and MAVS independent); FIG. 9", "procedure": "BMMs were differentiated as described previously (S3). For mays−/−macrophages, heterozygous mice were used as a control. WT and mutant BMMs were plated in 24-well plates ([…]) the evening prior to use. For infections, 2×10^6 bacteria from 30° C. overnight cultures were washed with PBS and added to each well containing 500 μL of BMM media. For c-di-AMP treatment, synthetic standard was dissolved in digitonin solution to a final concentration of 3 μM. Media was aspirated from cells and replaced with 200 μL of c-di-AMP/digitonin mix. From this point on infections and c-di-AMP samples were treated the same. At 30 minutes wells were aspirated and replaced with fresh BMM media. At 1 hour post infection gentamycin (50 μg/mL) was added. For LPS treatment, 100 ng of sonicated LPS stock solution (50 μg/mL) was added to appropriate wells containing 500 μL of BMM media. Supernatants from all wells were collected and analyzed by ISRE L929 bioassay for IFN-β activity at 6 hours. • 10. Supporting References • S1. D. A. Portnoy, P. S. Jacks, D. J. Hinrichs, Role of hemolysin for the intracellular growth of Listeria monocytogenes. J. Exp. Med. 167, 1459 (1988). • S2. L. Phan-Thanh, T. Gormon, A chemically defined minimal medium for the optimal culture of Listeria. Int. J. Food Microbiol. 35, 91 (1997). • S3. […]"}, "[4]": {"tested_on": "host IFN pathway", "details": "delivered to the host cytosol; reference 29; cited from earlier work"}}, "data": [{"smiles": "Nc1ncnc2c1ncn2[C@@H]1O[C@@H]2COP(=O)(O)O[C@H]3[C@@H](O)[C@H](n4cnc5c(N)ncnc54)O[C@@H]3COP(=O)(O)O[C@H]2[C@H]1O", "note": "[c-di-AMP, cyclic di-adenosine monophosphate]", "values": [{"measurement": "IFN-β induction in macrophages", "setting": "[1]; commercially available c-di-AMP delivered to the cytosol of murine BMMs", "result": "dose-dependent response"}, {"measurement": "IFN-β inducing activity after treatment with snake venom phosphodiesterase (SVPD)", "setting": "[1]; sample treated with SVPD", "result": "abolished the activity"}, {"measurement": "cell permeability", "setting": "[2]", "result": "not cell permeable"}, {"measurement": "induction of inflammation", "setting": "[2]; added to the outside of cells", "result": "does not induce inflammation"}, {"measurement": "host signaling pathway required for detection (type-I IFN)", "setting": "[3]", "result": "requires a parallel host-signaling pathway"}]}, {"smiles": "Nc1nc2c(ncn2[C@@H]2O[C@@H]3COP(=O)(O)O[C@H]4[C@@H](O)[C@H](n5cnc6c(=O)[nH]c(N)nc65)O[C@@H]4COP(=O)(O)O[C@H]3[C@H]2O)c(=O)[nH]1", "note": "[c-di-GMP]", "values": [{"measurement": "activation of host IFN pathway", "setting": "[4]", "result": "specifically activates the host IFN pathway"}]}]}
